Patent US12378206B2, “Heteroaryl butanoic acid derivatives” (NOVARTIS AG, priority 2013, dated 2025)
Where two headings read alike, the source gives them in different places.

Tests used:
[1] = system: LTB4 biosynthesis in human whole blood; assay: Human whole blood assay (hWB): inhibition of LTB4 biosynthesis after A23187 stimulation, ELISA; type: cell-based
Experimental: Compounds are tested in a human whole blood assay (hWB) to test their ability to inhibit LTB4 biosynthesis in a human cellular system. To this end, fresh blood is collected in heparinized vacutainers by venipuncture from volunteers. Blood is diluted 1:3 with RPMI (Roswell Park Memorial Institute) medium and aliquots of 200 μL are transferred to 96-well round bottom cell culture plates. For compound testing, compounds are delivered as 10 mM stock solutions in 90% DMSO in matrix tubes. […] 4 μL of compound dilution or vehicle is added to 200 μL of blood and incubated for 15 min at 37° C. in a humidified incubator. Then blood is stimulated with 10 μg/ml calcium ionophore A23187 (Sigma) or equal volume DMSO (control) and incubated for an additional 15 min at 37° C. in a humidified incubator. Incubation is terminated by centrifugation at 300 g for 10 min at 22° C. Plasma supernatant is taken and transferred to a 96 well plate for eicosanoid determination by ELISA (Assay designs) according to the manufacturer's protocol after 1:20 dilution in assay buffer. The data is analyzed in GraphPad Prism (GraphPad software Inc.) using non-linear regression to determine IC50 values of LTA4H inhibitors.

human LTA4H = biological target: T1, human LTA4H (Homo sapiens, UniProt P09960); assay: Human LTA4H enzyme assay (Arg-AMC surrogate substrate, fluorescence); type: biochemical; settings: read-out: ArgAMC IC50
T1 sequence (P09960 1-611): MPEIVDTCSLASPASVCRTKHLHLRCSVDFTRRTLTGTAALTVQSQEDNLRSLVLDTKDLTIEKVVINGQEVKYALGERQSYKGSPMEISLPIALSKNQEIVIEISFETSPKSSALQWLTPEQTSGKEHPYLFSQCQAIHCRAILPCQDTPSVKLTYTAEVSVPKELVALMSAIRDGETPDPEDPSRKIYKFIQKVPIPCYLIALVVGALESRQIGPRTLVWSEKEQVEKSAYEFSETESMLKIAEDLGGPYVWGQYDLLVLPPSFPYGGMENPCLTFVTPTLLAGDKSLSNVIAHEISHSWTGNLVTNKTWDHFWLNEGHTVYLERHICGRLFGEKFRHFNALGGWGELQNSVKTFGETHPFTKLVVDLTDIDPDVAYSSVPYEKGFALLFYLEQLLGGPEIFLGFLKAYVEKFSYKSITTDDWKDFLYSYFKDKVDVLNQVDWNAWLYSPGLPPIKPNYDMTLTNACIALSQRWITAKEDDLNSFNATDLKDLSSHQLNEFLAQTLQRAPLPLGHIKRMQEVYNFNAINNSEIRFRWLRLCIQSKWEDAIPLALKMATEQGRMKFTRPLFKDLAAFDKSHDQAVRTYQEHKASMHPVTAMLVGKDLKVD
Experimental: Leukotriene A4 hydrolase (LTA4H) catalyzes the vinylogous hydrolysis of the epoxide, leukotriene A4 (LTA4) into the pro-inflammatory mediator LTB4.
For compound testing, compounds are delivered as 10 mM stock solutions in 90% DMSO (10% water) in matrix tubes. […] The enzyme compound mixture is incubated at room temperature for 15 minutes prior to the addition of 50 μL substrate solution. A final substrate concentration of 600 μM, which is around the KM value of Arg-AMC, at a final enzyme concentration of 9 nM is chosen. Upon addition of the substrate, the plate is immediately placed in a fluorescence reader and the fluorescence is measured every 10 minutes for 60 minutes using the filter setting λexcitation=380 nm and λemission=460 nm. […] Raw data is converted to rate (moles per minute) using the AMC calibration curve calculated from the AMC standards. The data is analyzed in GraphPad Prism (GraphPad software Inc.) using non-linear regression to determine IC50 values of LTA4H inhibitors.

LTB4 release = assay: Murine PD assay: ex vivo A23187-stimulated LTB4 release in blood after p.o. dosing; design: species or system female C57BL/6 mice; settings: Mus musculus, po, read-out: PD effect [%] inhibition of LTB4 release
Experimental: LTA4H inhibitor compounds or vehicle control (30% PEG200 (70%), 5% Glucose) is applied per os (p.o.) in a dose of 0.3 mg/kg to female C57BL/6 mice (Charles River France). Three hours after application of compound, mice are terminally bled and blood is collected in heparinized tubes. Collected blood is diluted 1:3 in RPMI medium, added in 96-well round bottom cell culture plates and incubated with 10 μg/ml calcium ionophore A23187 (Sigma) or equal volume DMSO (control) for 15 min at 37° C. in a humidified incubator. Incubation is terminated by centrifugation at 300 g for 10 min at 22° C. Plasma supernatant is taken, diluted 1:10 in assay buffer and transferred to a 96 well plate for eicosanoid determination by ELISA (Assay designs) according to the manufacturer's protocol.

[2] = human whole blood diluted 1:3, 10 μg/ml calcium ionophore A23187, LTB4 by ELISA, read-out: hWB IC50
[3] = Homo sapiens, read-out: hWB IC50 (nM)
[4] = 0.3 mg/kg p.o., female C57BL/6 mice, blood taken 3 hours after application, ex vivo A23187 stimulation, versus vehicle control

Row | IC50 [1, 2] | IC50 (human LTA4H) | SMILES | IC50 [1, 3] | inhibition at 0.3 mg/kg (LTB4 release; [4]) | inhibition at 0.3 mg/kg (LTB4 release; 3 h)
1 | 214 nM | 4 nM | N[C@@H](CC(=O)O)Cn1nnc(-c2cccc(Oc3ccccc3)c2)n1 [Example 10, (S)-3-amino-4-(5-(3-phenoxyphenyl)-2H-tetrazol-2-yl)butanoic acid] | – | – | –
2 | 294 nM | 8 nM | N[C@H](CC(=O)O)Cn1nnc(-c2cccc(Oc3cc(F)cc(F)c3)c2)n1 [Example 22, (R)-3-amino-4-(5-(3-(3,5-difluorophenoxy)phenyl)-2H-tetrazol-2-yl)butanoic acid] | – | – | –
3 | 282 nM | 3 nM | N[C@@H](CC(=O)O)Cc1nnc(-c2ccc(Oc3ccc(F)cc3)cc2)o1 [Example 24, (R)-3-amino-4-(5-(4-(4-fluorophenoxy)phenyl)-1,3,4-oxadiazol-2-yl)butanoic acid] | – | – | –
4 | 402 nM | ≤ 2 nM | Cc1ccc(Oc2ccc(-c3nnn(C[C@H](N)CC(=O)O)n3)cc2)cc1 [Example 9, (R)-3-amino-4-(5-(4-(p-tolyloxy)phenyl)-2H-tetrazol-2-yl)butanoic acid] | – | – | –
5 | 282 nM | 3 nM | N[C@H](CC(=O)O)Cn1nnc(-c2ccc(Oc3ccc(F)c(Cl)c3)cc2)n1 [Example 8, (R)-3-amino-4-(5-(4-(3-chloro-4-fluorophenoxy)phenyl)-2H-tetrazol-2-yl)butanoic acid] | – | – | –
6 | 396 nM | 3 nM | N[C@H](CC(=O)O)Cn1nnc(-c2cccc(Oc3ccc(Cl)cc3)c2)n1 [Example 5, (R)-3-amino-4-(5-(3-(4-chlorophenoxy)phenyl)-2H-tetrazol-2-yl)butanoic acid] | – | – | –
7 | 382 nM | 3 nM | N[C@@H](CC(=O)O)Cc1nnc(-c2ccc(Oc3ccc(Cl)cc3)cc2)o1 [Example 25, (R)-3-amino-4-(5-(4-(4-chlorophenoxy)phenyl)-1,3,4-oxadiazol-2-yl)butanoic acid] | – | – | –
8 | 126 nM | 3 nM | N[C@@H](CC(=O)O)Cc1nc(-c2ccc(Oc3ccc(Cl)cc3)cc2)no1 [Example 26, (R)-3-amino-4-(3-(4-(4-chlorophenoxy)phenyl)-1,2,4-oxadiazol-5-yl)butanoic acid] | – | – | –
9 | 209 nM | 5 nM | N[C@H](CC(=O)O)Cn1nnc(-c2cccc(Oc3nc4ccccc4s3)c2)n1 [Example 21, (R)-3-amino-4-(5-(3-(benzo[d]thiazol-2-yloxy)phenyl)-2H-tetrazol-2-yl)butanoic acid] | – | – | –
10 | 173 nM | ≤ 2 nM | Cc1ccc(Oc2ccc(-c3nnn(C[C@@H](N)CC(=O)O)n3)cc2)cc1 [Example 23, (S)-3-amino-4-(5-(4-(p-tolyloxy)phenyl)-2H-tetrazol-2-yl)butanoic acid] | – | 44% | –
11 | 218 nM | 10 nM | NC(=O)C[C@H](N)Cc1nc(-c2ccc(Oc3ccc(Cl)cc3)cc2)no1 [Example 27, (R)-3-amino-4-(3-(4-(4-chlorophenoxy)phenyl)-1,2,4-oxadiazol-5-yl)butanamide] | – | – | –
12 | 270 nM | 5 nM | N[C@H](CC(=O)O)Cn1nnc(-c2ccc(Oc3ccc(C(F)(F)F)cn3)cc2)n1 [Example 20, (R)-3-amino-4-(5-(4-((5-(trifluoromethyl)pyridin-2-yl)oxy)phenyl)-2H-tetrazol-2-yl)butanoic acid] | – | – | –
13 | 728 nM | 3 nM | N[C@@H](CC(=O)O)Cn1cc(-c2ccc(Oc3ccc(Cl)cc3)cc2)cn1 [Example 28, (S)-3-amino-4-(4-(4-(4-chlorophenoxy)phenyl)-1H-pyrazol-1-yl)butanoic acid] | – | – | –
14 | 86 nM | ≤ 2 nM | N[C@H](CC(=O)O)Cn1nnc(-c2cccc(OCCc3ccccc3)c2)n1 [Example 13, (R)-3-amino-4-(5-(3-phenethoxyphenyl)-2H-tetrazol-2-yl)butanoic acid] | – | 55% | –

Row | SMILES | IC50 [1, 2] | IC50 (human LTA4H) | IC50 [1, 3] | inhibition at 0.3 mg/kg (LTB4 release; [4]) | inhibition at 0.3 mg/kg (LTB4 release; 3 h)
15 | N[C@H](CC(=O)O)Cn1nnc(-c2cccc(Oc3ccc(C(F)(F)F)cn3)c2)n1 [Example 19, (R)-3-amino-4-(5-(3-((5-(trifluoromethyl)pyridin-2-yl)oxy)phenyl)-2H-tetrazol-2-yl)butanoic acid] | – | 3 nM | 273 nM | – | –
16 | N[C@H](CC(=O)O)Cn1nnc(-c2ccc(OCc3ccccc3)cc2)n1 [Example 15, (R)-3-amino-4-(5-(4-(benzyloxy)phenyl)-2H-tetrazol-2-yl)butanoic acid] | – | ≤ 2 nM | 81 nM | – | 49%
17 | N[C@H](CC(=O)O)Cn1nnc(-c2cccc(OCc3ccccc3)c2)n1 [Example 16, (R)-3-amino-4-(5-(3-(benzyloxy)phenyl)-2H-tetrazol-2-yl)butanoic acid] | – | 3 nM | 165 nM | – | 9%
18 | CCCCOc1ccc(-c2nnn(C[C@H](N)CC(=O)O)n2)cc1 [Example 17, (R)-3-amino-4-(5-(4-butoxyphenyl)-2H-tetrazol-2-yl)butanoic acid] | – | 4 nM | 183 nM | – | 47%
